According to patent publication US20250352550A1, “SUBSTITUTED FUROPYRIDINES FOR THERAPEUTIC USE” (MASARYKOVA UNIVERZITA, priority 2022, published 2025):
pIC50: −log10 of the molar value.

Experiments:
DDR1 = target: T1, DDR1 (Homo sapiens, UniProt Q08345); assay: HotSpot radiometric kinase assay (Reaction Biology), DDR1; assay type: biochemical; settings: 200 nM kinase, substrate IRS1tide 20 μM, 33P-ATP, 120 minutes at room temperature
T1 construct: purchased Reaction Biology
Experimental: (§1) The compounds were profiled in the HotSpot radiometric assays (Reaction Biology).
Briefly, • 1. Substrate indicated in Table 1 was dissolved in freshly prepared reaction buffer (20 mM HEPES (pH 7.5), 10 mM MgCl2, 1 mM EGTA, 0.01% Brij35, 0.02 mg/ml BSA, 0.1 mM Na3VO4, 2 mM DTT, 1% DMSO) at the concentration indicated in Table 1. • 2. Corresponding kinase (concentration indicated in Table 1) was added and the mixture was gently mixed. • 3. Tested compound dissolved in DMSO was added into the kinase reaction mixture. • 4. ^33P-ATP (specific activity 0.01 μCi/μL final) was added into the reaction mixture to initiate the reaction. • 5. The kinase reaction was incubated for 120 minutes at room temperature. • 6. […] The radioactive phosphorylated substrate remaining on the filter paper was measured.
(§2) Kinase activity data were expressed as the percent remaining kinase activity in tested samples compared to the vehicle (DMSO) reactions. IC50 values and curve fits were obtained using Prism4 Software (GraphPad).

FLT3 = target: T2, FLT3 (Homo sapiens, UniProt P36888); assay: HotSpot radiometric kinase assay (Reaction Biology), FLT3; assay type: biochemical; settings: 4 nM kinase, substrate ABLtide 20 μM, 33P-ATP, 120 minutes at room temperature
T2 construct: purchased Reaction Biology
T2 sequence (P36888 27-993): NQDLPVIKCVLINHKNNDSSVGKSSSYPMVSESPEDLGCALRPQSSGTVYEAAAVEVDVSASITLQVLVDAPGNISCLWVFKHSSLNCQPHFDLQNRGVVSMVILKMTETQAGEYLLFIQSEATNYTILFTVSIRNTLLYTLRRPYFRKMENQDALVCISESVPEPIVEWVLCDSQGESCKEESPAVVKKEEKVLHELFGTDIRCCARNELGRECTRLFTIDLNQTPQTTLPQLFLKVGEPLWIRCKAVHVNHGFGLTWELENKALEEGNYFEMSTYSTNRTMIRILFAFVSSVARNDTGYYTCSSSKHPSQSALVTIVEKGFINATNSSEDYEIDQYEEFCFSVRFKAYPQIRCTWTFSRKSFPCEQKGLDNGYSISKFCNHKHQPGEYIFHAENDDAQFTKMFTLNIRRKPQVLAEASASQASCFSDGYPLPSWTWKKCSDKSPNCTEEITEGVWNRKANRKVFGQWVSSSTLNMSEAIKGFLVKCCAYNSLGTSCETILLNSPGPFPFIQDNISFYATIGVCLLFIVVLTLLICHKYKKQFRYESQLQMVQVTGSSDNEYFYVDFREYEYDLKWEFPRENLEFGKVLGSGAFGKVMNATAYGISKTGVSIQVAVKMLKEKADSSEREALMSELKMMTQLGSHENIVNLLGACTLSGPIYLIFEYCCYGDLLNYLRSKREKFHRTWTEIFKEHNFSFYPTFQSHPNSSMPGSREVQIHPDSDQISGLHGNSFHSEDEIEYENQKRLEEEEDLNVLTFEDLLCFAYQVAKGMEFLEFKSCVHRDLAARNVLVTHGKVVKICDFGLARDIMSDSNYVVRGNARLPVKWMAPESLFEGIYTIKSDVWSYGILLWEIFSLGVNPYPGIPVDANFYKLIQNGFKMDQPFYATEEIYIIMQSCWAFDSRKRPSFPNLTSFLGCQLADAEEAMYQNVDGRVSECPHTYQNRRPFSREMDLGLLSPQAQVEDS
Experimental: as §1
Briefly, • 1. Substrate indicated in Table 1 was dissolved in freshly prepared reaction buffer (20 mM HEPES (pH 7.5), 10 mM MgCl2, 1 mM EGTA, 0.01% Brij35, 0.02 mg/ml BSA, 0.1 mM Na3VO4, 2 mM DTT, 1% DMSO) at the concentration indicated in Table 1. • 2. Corresponding kinase (concentration indicated in Table 1) was added and the mixture was gently mixed. • 3. Tested compound dissolved in DMSO was added into the kinase reaction mixture. • 4. ^33P-ATP (specific activity 0.01 μCi/μL final) was added into the reaction mixture to initiate the reaction. • 5. The kinase reaction was incubated for 120 minutes at room temperature. • 6. Reaction mixture was spotted onto P81 ion exchange paper (Whatman K 3698-915). • 7. The filters were extensively washed with […]. • 7. The radioactive phosphorylated substrate remaining on the filter paper was measured.
as §2
Table 2 summarizes the inhibitory activities of indicated compounds tested in the in vitro kinase assays described above.

T1 sequence (Q08345 19-913): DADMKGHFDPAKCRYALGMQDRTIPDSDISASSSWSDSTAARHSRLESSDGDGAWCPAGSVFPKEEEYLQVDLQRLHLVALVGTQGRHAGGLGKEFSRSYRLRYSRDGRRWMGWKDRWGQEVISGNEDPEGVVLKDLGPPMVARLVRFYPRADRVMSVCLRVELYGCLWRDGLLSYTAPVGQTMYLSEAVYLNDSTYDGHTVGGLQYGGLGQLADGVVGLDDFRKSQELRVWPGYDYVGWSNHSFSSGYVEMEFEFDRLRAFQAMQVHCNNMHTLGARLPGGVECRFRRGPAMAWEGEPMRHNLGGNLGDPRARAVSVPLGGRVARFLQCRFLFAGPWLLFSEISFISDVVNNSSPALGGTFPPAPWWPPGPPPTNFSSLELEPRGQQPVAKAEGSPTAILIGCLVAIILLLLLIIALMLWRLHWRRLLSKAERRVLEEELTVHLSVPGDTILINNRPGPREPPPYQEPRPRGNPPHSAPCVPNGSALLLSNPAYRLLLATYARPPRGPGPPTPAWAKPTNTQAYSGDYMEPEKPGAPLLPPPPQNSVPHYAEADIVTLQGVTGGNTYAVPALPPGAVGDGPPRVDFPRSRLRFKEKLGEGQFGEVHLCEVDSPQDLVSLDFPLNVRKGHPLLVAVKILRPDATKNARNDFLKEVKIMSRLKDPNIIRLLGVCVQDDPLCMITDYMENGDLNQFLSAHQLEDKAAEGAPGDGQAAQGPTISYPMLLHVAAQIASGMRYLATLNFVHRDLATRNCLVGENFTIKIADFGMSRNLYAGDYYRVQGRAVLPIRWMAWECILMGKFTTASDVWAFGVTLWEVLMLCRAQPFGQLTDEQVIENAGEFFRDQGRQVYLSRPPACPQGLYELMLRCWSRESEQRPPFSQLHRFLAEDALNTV

Molecule `COc1ccc(-c2coc3cc(-c4ccc(N5CCN(C)CC5)cc4)cnc23)cc1` [Preparative Example 255, 3-(4-methoxyphenyl)-6-(4-(4-methylpiperazin-1-yl)phenyl)furo[3,2-b]pyridine] has a pIC50 (DDR1) of 6.72 and a pIC50 (FLT3) of 6.85.
With `Cc1ccc(-c2coc3cc(-c4ccc(N5CCNCC5)cc4)cnc23)cc1` [Preparative Example 43, 6-(4-(piperazin-1-yl)phenyl)-3-(p-tolyl)furo[3,2-b]pyridine] the pIC50 (DDR1) was 6.90 and the pIC50 (FLT3) was 6.76.
For `CN1CCN(c2ccc(-c3cnc4c(-c5cccc(CNC(=O)OC(C)(C)C)c5)coc4c3)cc2)CC1` [Preparative Example 135, tert-butyl (3-(6-(4-(4-methylpiperazin-1-yl)phenyl)furo[3,2-b]pyridin-3-yl)benzyl)carbamate], the pIC50 (DDR1) was 6.37 and the pIC50 (FLT3) was 6.46.
`CSc1cccc(-c2coc3cc(-c4ccc(N5CCN(C)CC5)cc4)cnc23)c1` [Preparative Example 147, 6-(4-(4-methylpiperazin-1-yl)phenyl)-3-(3-(methylthio)phenyl)furo[3,2-b]pyridine] gave a pIC50 (DDR1) of 6.63 and a pIC50 (FLT3) of 6.69.
For `CCNS(=O)(=O)Cc1cccc(-c2coc3cc(-c4ccc(N5CCN(C)CC5)cc4)cnc23)c1` [Preparative Example 141, N-ethyl-1-(3-(6-(4-(4-methylpiperazin-1-yl)phenyl)furo[3,2-b]pyridin-3-yl)phenyl)methanesulfonamide], the pIC50 (DDR1) was 6.12 and the pIC50 (FLT3) was 6.09.
`c1ccc(Oc2cccc(-c3coc4cc(-c5ccc(N6CCNCC6)cc5)cnc34)c2)cc1` [Preparative Example 104, 3-(3-phenoxyphenyl)-6-(4-(piperazin-1-yl)phenyl)furo[3,2-b]pyridine] showed a pIC50 (DDR1) of 6.60 and a pIC50 (FLT3) of 6.92.
With `c1cc(-c2coc3cc(-c4ccc(N5CCNCC5)cc4)cnc23)co1` [Preparative Example 57, 3-(furan-3-yl)-6-(4-(piperazin-1-yl)phenyl)furo[3,2-b]pyridine] the pIC50 (DDR1) was 6.76 and the pIC50 (FLT3) was 7.66.
In the case of `CONC(=O)c1cccc(-c2coc3cc(-c4ccc(N5CCN(C)CC5)cc4)cnc23)c1` [Preparative Example 238, N-methoxy-3-{6-[4-(4-methylpiperazin-1-yl)phenyl]furo[3,2-b]pyridin-3-yl}benzamide], the pIC50 (DDR1) was 7.11 and the pIC50 (FLT3) was 7.66.
In the case of `CC(C)(C)Sc1cccc(-c2coc3cc(-c4ccc(N5CCNCC5)cc4)cnc23)c1` [Preparative Example 46, 3-(3-(tert-butylthio)phenyl)-6-(4-(piperazin-1-yl)phenyl)furo[3,2-b]pyridine], the pIC50 (DDR1) was 6.23 and the pIC50 (FLT3) was 6.24.
With `CCNC(=O)Cc1cccc(-c2coc3cc(-c4ccc(N5CCNCC5)cc4)cnc23)c1` [Preparative Example 152, N-ethyl-2-(3-(6-(4-(piperazin-1-yl)phenyl)furo[3,2-b]pyridin-3-yl)phenyl)acetamide] the pIC50 (DDR1) was 7.14 and the pIC50 (FLT3) was 7.62.
`COC(=O)c1cccc(-c2coc3cc(-c4ccc(N5CCN(C)CC5)cc4)cnc23)c1` [Preparative Example 237, methyl 3-{6-[4-(4-methylpiperazin-1-yl)phenyl]furo[3,2-b]pyridin-3-yl}benzoate] was tested, and the pIC50 (DDR1) was 6.31 and the pIC50 (FLT3) was 7.18.
Molecule `CN1CCN(c2ccc(-c3cnc4c(-c5ccncc5)coc4c3)cc2)CC1` [Preparative Example 58, 6-(4-(4-methylpiperazin-1-yl)phenyl)-3-(pyridin-4-yl)furo[3,2-b]pyridine] has a pIC50 (DDR1) of 6.44 and a pIC50 (FLT3) of 7.51.
Molecule `COc1ccccc1-c1coc2cc(-c3ccc(N4CCNCC4)cc3)cnc12` [Preparative Example 17, 3-(2-methoxyphenyl)-6-(4-(piperazin-1-yl)phenyl)furo[3,2-b]pyridine] has a pIC50 (DDR1) of 6.74 and a pIC50 (FLT3) of 6.65.
Work on `Cn1ccc(-c2coc3cc(-c4ccc(N5CCNCC5)cc4)cnc23)n1` [Preparative Example 37, 3-(1-methyl-1H-pyrazol-3-yl)-6-(4-(piperazin-1-yl)phenyl)furo[3,2-b]pyridine] yielded a pIC50 (DDR1) of 6.65 and a pIC50 (FLT3) of 6.55.
`Cc1nn(C)cc1-c1coc2cc(-c3ccc(N4CCN(C)CC4)cc3)cnc12` [Preparative Example 216, 1-{4-[3-(1,3-dimethyl-1H-pyrazol-4-yl)furo[3,2-b]pyridin-6-yl]phenyl}-4-methylpiperazine] gave a pIC50 (DDR1) of 6.44 and a pIC50 (FLT3) of 6.65.
Molecule `Cc1c(-c2ccc(N3CCN(C)CC3)cc2)cnc2c(-c3ccccc3)coc12` [Preparative Example 188, 7-methyl-6-(4-(4-methylpiperazin-1-yl)phenyl)-3-phenylfuro[3,2-b]pyridine] has a pIC50 (DDR1) of 6.73 and a pIC50 (FLT3) of 6.83.
`c1cc(-c2coc3cc(-c4ccc(N5CCNCC5)nc4)cnc23)ccn1` [Preparative Example 25, 6-(6-(piperazin-1-yl)pyridin-3-yl)-3-(pyridin-4-yl)furo[3,2-b]pyridine] showed a pIC50 (DDR1) of 6.10 and a pIC50 (FLT3) of 7.31.
`NS(=O)(=O)c1cccc(-c2coc3cc(-c4ccc(N5CCNCC5)cc4)cnc23)c1` [Preparative Example 64, 3-(6-(4-(piperazin-1-yl)phenyl)furo[3,2-b]pyridin-3-yl)benzenesulfonamide] was tested, and the pIC50 (DDR1) was 6.87 and the pIC50 (FLT3) was 7.59.
`CC(=O)c1cc(-c2coc3cc(-c4ccc(N5CCN(C)CC5)cc4)cnc23)ccn1` [Preparative Example 156, 1-(4-(6-(4-(4-methylpiperazin-1-yl)phenyl)furo[3,2-b]pyridin-3-yl)pyridin-2-yl)ethan-1-one] was tested, and the pIC50 (DDR1) was 6.13 and the pIC50 (FLT3) was 7.34.
`CN1CCN(c2ccc(-c3cnc4c(-c5ccccc5)coc4c3)cc2)CC1` [Preparative Example 172, 6-(4-(4-methylpiperazin-1-yl)phenyl)-3-phenylfuro[3,2-b]pyridine] was tested, and the pIC50 (DDR1) was 6.85 and the pIC50 (FLT3) was 7.48.
Molecule `FC(F)(F)COc1cccc(-c2coc3cc(-c4ccc(N5CCNCC5)cc4)cnc23)c1` [Preparative Example 116, 6-(4-(piperazin-1-yl)phenyl)-3-(3-(2,2,2-trifluoroethoxy)phenyl)furo[3,2-b]pyridine] has a pIC50 (DDR1) of 6.17 and a pIC50 (FLT3) of 6.45.
`CN(C)c1cccc(-c2coc3cc(-c4ccc(N5CCNCC5)cc4)cnc23)c1` [Preparative Example 131, N,N-dimethyl-3-(6-(4-(piperazin-1-yl)phenyl)furo[3,2-b]pyridin-3-yl)aniline] gave a pIC50 (DDR1) of 6.41 and a pIC50 (FLT3) of 6.46.
With `CCCc1oc2cc(-c3ccc(N4CCN(C)CC4)cc3)cnc2c1-c1ccccc1` [Preparative Example 200, 1-methyl-4-(4-{3-phenyl-2-propylfuro[3,2-b]pyridin-6-yl}phenyl)piperazine] the pIC50 (DDR1) was 7.10 and the pIC50 (FLT3) was 6.44.
Molecule `CN1CCN(c2ccc(-c3cnc4c(-c5cccc(C(=O)c6ccccc6)c5)coc4c3)cc2)CC1` [Preparative Example 133, (3-(6-(4-(4-methylpiperazin-1-yl)phenyl)furo[3,2-b]pyridin-3-yl)phenyl)(phenyl)methanone] has a pIC50 (DDR1) of 6.33 and a pIC50 (FLT3) of 6.57.
`CN1CCN(c2ccc(-c3cnc4c(-c5cccc(S(C)(=O)=O)c5)coc4c3)cc2)CC1` [Preparative Example 175, 6-(4-(4-methylpiperazin-1-yl)phenyl)-3-(3-(methylsulfonyl)phenyl)furo[3,2-b]pyridine] was tested, and the pIC50 (DDR1) was 6.54 and the pIC50 (FLT3) was 6.65.
